Laboratory results as given in ChEMBL document CHEMBL4354859, “Dimerization of α-Conotoxins as a Strategy to Enhance the Inhibition of the Human α7 and α9α10 Nicotinic Acetylcholine Receptors” (J Med Chem, 2020).
Calls of active or inactive are those of the source. The rule behind the calls is not given here. Numbered stars: 1 amine (or outer) side, 2 acyl side, 3 side chain; on linkers, the order of the positions; unused ones are H or OH. Bridge positions count the residues as written; N and C are the ends. Square brackets hold non-standard residues; d marks the D form. Peptide text beside a SMILES is read from it. I, II: the chains in the order shown. ξ: configuration not given here. X1 = O=C(CCOCCOCCOCCOCCOCCOCCOCCOCCOCCn1cc(CCCC(=O)[*:2])nn1)[*:1]; ξK = NCCCCC(N)C(=O)O

Experiments:
[1] = target: Neuronal acetylcholine receptor subunit alpha-7 (Rattus norvegicus, UniProt Q05941); assay: Inhibition of rat alpha7 nAChR
[2] = target: T1, Neuronal acetylcholine receptor; alpha9/alpha10 (Homo sapiens, UniProt Q9GZZ6+Q9UGM1); assay: Inhibition of human alpha9alpha10 nAChR expressed in Xenopus laevis oocytes assessed as inhibition of ACh-evoked currents by two-electrode voltage clamp assay; assay type: cell-based
[3] = target: T2, Neuronal acetylcholine receptor subunit alpha-7 (Homo sapiens, UniProt P36544); assay: Inhibition of human alpha7 nAChR expressed in Xenopus laevis oocytes assessed as inhibition of ACh-evoked currents by two-electrode voltage clamp assay; assay type: cell-based
[4] = target: T3, Neuronal acetylcholine receptor; alpha9/alpha10 (Homo sapiens) (UniProt Q9UGM1+Q9GZZ6); assay: Reversible inhibition of human alpha9alpha10 nAChR expressed in Xenopus laevis oocytes assessed as inhibition of ACh-evoked currents by two-electrode voltage clamp assay; assay type: cell-based
[5] = target: T2, Neuronal acetylcholine receptor subunit alpha-7; assay: Reversible inhibition of human alpha7 nAChR expressed in Xenopus laevis oocytes assessed as inhibition of ACh-evoked currents by two-electrode voltage clamp assay; assay type: cell-based
[6] = target: T2, Neuronal acetylcholine receptor subunit alpha-7; assay: Inhibition of human alpha7 nAChR expressed in Xenopus laevis oocytes assessed as inhibition of ACh-evoked currents at 1 uM by two-electrode voltage clamp assay relative to control; assay type: cell-based
[7] = target: T1, Neuronal acetylcholine receptor; alpha9/alpha10; assay: Inhibition of human alpha9alpha10 nAChR expressed in Xenopus laevis oocytes expressing alpha9:alpha10 mRNA injection ratio of 1:3 assessed as inhibition of ACh-evoked currents by two-electrode voltage clamp assay; assay type: cell-based
[8] = target: T4, Neuronal acetylcholine receptor; alpha3/beta2 (Homo sapiens) (UniProt P17787+P32297); assay: Inhibition of human alpha3beta2 nAChR expressed in Xenopus laevis oocytes assessed as inhibition of ACh-evoked currents at 100 nM by two-electrode voltage clamp assay; assay type: cell-based
[9] = target: T5, Neuronal acetylcholine receptor; alpha4/beta2 (Homo sapiens) (UniProt P17787+P43681); assay: Inhibition of human alpha4beta2 nAChR expressed in Xenopus laevis oocytes assessed as inhibition of ACh-evoked currents at 100 nM by two-electrode voltage clamp assay; assay type: cell-based
[10] = target: T6, Neuronal acetylcholine receptor; alpha3/beta4 (Homo sapiens) (UniProt P30926+P32297); assay: Inhibition of human alpha3beta4 nAChR expressed in Xenopus laevis oocytes assessed as inhibition of ACh-evoked currents at 100 nM by two-electrode voltage clamp assay; assay type: cell-based
[11] = target: T4, Neuronal acetylcholine receptor; alpha3/beta2 (Homo sapiens); assay: Inhibition of human alpha3beta2 nAChR expressed in Xenopus laevis oocytes assessed as inhibition of ACh-evoked currents at 1 uM by two-electrode voltage clamp assay relative to control; assay type: cell-based
[12] = target: T5, Neuronal acetylcholine receptor; alpha4/beta2 (Homo sapiens); assay: Inhibition of human alpha4beta2 nAChR expressed in Xenopus laevis oocytes assessed as inhibition of ACh-evoked currents at 1 uM by two-electrode voltage clamp assay; assay type: cell-based
[13] = target: T6, Neuronal acetylcholine receptor; alpha3/beta4 (Homo sapiens); assay: Inhibition of human alpha3beta4 nAChR expressed in Xenopus laevis oocytes assessed as inhibition of ACh-evoked currents at 1 uM by two-electrode voltage clamp assay; assay type: cell-based
[14] = target: T3, Neuronal acetylcholine receptor; alpha9/alpha10 (Homo sapiens); assay: Inhibition of human alpha9alpha10 nAChR expressed in Xenopus laevis oocytes assessed as inhibition of ACh-evoked currents at 100 nM by two-electrode voltage clamp assay; assay type: cell-based
[15] = target: T3, Neuronal acetylcholine receptor; alpha9/alpha10 (Homo sapiens); assay: Inhibition of human alpha9alpha10 nAChR expressed in Xenopus laevis oocytes assessed as inhibition of ACh-evoked currents at 1 uM by two-electrode voltage clamp assay; assay type: cell-based

T2 sequence (P36544 whole entry): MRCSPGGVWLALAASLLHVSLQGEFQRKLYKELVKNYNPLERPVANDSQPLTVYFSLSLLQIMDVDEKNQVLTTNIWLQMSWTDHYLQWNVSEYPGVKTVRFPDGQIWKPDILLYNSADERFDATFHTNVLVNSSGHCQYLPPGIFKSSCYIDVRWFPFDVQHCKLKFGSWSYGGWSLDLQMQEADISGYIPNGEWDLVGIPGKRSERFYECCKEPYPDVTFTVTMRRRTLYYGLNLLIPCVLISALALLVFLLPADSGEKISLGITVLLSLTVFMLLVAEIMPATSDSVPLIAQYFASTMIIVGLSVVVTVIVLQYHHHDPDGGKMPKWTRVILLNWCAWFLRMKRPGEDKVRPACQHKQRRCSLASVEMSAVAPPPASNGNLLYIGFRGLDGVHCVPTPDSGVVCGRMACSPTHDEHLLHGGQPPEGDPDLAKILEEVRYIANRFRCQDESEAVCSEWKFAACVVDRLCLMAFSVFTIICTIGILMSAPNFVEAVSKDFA
T1 sequence (Q9UGM1 whole entry): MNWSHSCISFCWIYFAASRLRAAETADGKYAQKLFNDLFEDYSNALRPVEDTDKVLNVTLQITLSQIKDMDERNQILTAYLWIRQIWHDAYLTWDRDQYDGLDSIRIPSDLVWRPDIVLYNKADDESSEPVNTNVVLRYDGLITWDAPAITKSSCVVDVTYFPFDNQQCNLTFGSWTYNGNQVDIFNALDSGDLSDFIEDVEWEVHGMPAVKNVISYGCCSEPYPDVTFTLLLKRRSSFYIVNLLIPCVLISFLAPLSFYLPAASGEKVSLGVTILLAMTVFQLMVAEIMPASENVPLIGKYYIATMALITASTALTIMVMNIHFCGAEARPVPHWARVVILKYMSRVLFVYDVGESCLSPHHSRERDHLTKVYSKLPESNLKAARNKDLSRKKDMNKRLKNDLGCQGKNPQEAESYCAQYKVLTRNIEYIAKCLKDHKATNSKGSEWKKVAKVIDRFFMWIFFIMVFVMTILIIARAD
T1 sequence (Q9GZZ6 whole entry): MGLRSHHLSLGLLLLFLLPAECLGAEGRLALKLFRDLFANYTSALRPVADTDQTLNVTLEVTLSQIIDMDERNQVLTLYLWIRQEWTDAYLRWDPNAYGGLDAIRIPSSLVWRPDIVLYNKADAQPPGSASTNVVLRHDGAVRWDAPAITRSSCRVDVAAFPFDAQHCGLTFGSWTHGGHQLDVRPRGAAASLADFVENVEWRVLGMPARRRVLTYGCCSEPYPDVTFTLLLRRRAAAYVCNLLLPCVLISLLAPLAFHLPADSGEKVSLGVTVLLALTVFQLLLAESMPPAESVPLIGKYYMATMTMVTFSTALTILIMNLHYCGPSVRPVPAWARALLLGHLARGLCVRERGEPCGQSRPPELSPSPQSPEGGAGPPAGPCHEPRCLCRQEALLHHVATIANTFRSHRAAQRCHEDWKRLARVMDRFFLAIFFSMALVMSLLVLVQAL
Neuronal acetylcholine receptor subunit alpha-7 (Rattus norvegicus, UniProt Q05941), sequence (Q05941 whole entry): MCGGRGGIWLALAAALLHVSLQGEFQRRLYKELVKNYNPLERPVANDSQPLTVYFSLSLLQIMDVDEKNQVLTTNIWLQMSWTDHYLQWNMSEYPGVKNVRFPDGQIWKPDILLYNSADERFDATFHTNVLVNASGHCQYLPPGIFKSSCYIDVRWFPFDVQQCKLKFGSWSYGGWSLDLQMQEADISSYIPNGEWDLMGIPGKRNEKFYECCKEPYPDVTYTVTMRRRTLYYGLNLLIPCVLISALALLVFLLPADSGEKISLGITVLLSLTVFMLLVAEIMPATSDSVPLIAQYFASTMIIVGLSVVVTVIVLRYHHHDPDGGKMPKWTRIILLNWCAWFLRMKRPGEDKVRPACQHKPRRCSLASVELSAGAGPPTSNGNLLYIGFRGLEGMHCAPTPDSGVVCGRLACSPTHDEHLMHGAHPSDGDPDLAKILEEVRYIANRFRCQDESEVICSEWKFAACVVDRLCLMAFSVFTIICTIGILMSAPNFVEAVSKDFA

Row | SMILES | IC50 [2] [nM] | IC50 [3] [nM] | inhibition [4] | inhibition [5] | other results
1 | N=C(N)NCCC[C@H](NC(=O)[C@@H]1CSSC[C@@H]2NC(=O)[C@@H](NC(=O)CN)CSSC[C@H](NC(=O)[C@H](CCCNC(=N)N)NC(=O)[C@@H]3CCCN3C(=O)[C@H](CC(=O)O)NC(=O)[C@H](CO)NC2=O)C(=O)N[C@@H](CCCNC(=N)N)C(=O)N[C@@H](Cc2ccc(O)cc2)C(=O)N[C@@H](CCCNC(=N)N)C(=O)N1)C(=O)O | – | – | – | – | IC50 [1]: 4660 nM
2 | CC[C@H](C)[C@@H]1NC(=O)[C@H](CCC(=O)O)NC(=O)[C@@H]2CCCN2C(=O)[C@H](Cc2cnc[nH]2)NC(=O)[C@H](CC(=O)O)NC(=O)[C@H](Cc2ccc(O)cc2)NC(=O)[C@H](CC(N)=O)NC(=O)[C@@H]2CSSC[C@H](NC(=O)CN)C(=O)N[C@@H](CSSC[C@@H](C(N)=O)NC1=O)C(=O)N[C@@H](CO)C(=O)N[C@@H](CC(=O)O)C(=O)N1CCC[C@H]1C(=O)N[C@@H](CCCNC(=N)N)C(=O)N2 | 1000 | > 10000 | – | – | –
3 | C[C@@H]1NC(=O)[C@@H]2CSSC[C@H](NC(=O)CN)C(=O)N[C@@H](CSSC[C@@H](C(N)=O)NC(=O)[C@H](CCCNC(=N)N)NC(=O)[C@H](Cc3c[nH]c4ccccc34)NC1=O)C(=O)N[C@@H](CO)C(=O)N[C@@H](CC(=O)O)C(=O)N1CCC[C@H]1C(=O)N[C@@H](CCCNC(=N)N)C(=O)N2 | – | 1000 | – | – | –
4 | CC[C@H](C)[C@@H]1NC(=O)[C@H](CCC(=O)O)NC(=O)[C@@H]2CCCN2C(=O)[C@H](Cc2cnc[nH]2)NC(=O)[C@H](CC(=O)O)NC(=O)[C@H](Cc2ccc(O)cc2)NC(=O)[C@H](CC(N)=O)NC(=O)[C@@H]2CSSC[C@H](NC(=O)CNC(=O)CCOCCOCCOCCOCCOCCOCCOCCOCCOCCn3cc(CCCC(=O)NCCCCC(NC(=O)CCCc4cn(CCOCCOCCOCCOCCOCCOCCOCCOCCOCCC(=O)NCC(=O)N[C@H]5CSSC[C@@H]6NC(=O)[C@H](CCCNC(=N)N)NC(=O)[C@@H]7CCCN7C(=O)[C@H](CC(=O)O)NC(=O)[C@H](CO)NC(=O)[C@H](CSSC[C@@H](C(N)=O)NC(=O)[C@H]([C@@H](C)CC)NC(=O)[C@H](CCC(=O)O)NC(=O)[C@@H]7CCCN7C(=O)[C@H](Cc7cnc[nH]7)NC(=O)[C@H](CC(=O)O)NC(=O)[C@H](Cc7ccc(O)cc7)NC(=O)[C@H](CC(N)=O)NC6=O)NC5=O)nn4)C(=O)NCC(=O)N[C@@H](CCCNC(=N)N)C(=O)N[C@@H](CCCNC(=N)N)C(=O)N[C@@H](CCCNC(=N)N)C(=O)N[C@@H](CCCNC(=N)N)C(=O)NCC(N)=O)nn3)C(=O)N[C@@H](CSSC[C@@H](C(N)=O)NC1=O)C(=O)N[C@@H](CO)C(=O)N[C@@H](CC(=O)O)C(=O)N1CCC[C@H]1C(=O)N[C@@H](CCCNC(=N)N)C(=O)N2 (some centres undefined) | 266 | > 10000 | Dose-dependent effect | Dose-dependent effect | –
5 | N=C(N)NCCC[C@@H]1NC(=O)[C@H](Cc2ccc(O)cc2)NC(=O)[C@H](CCCNC(=N)N)NC(=O)[C@@H]2CSSC[C@H](NC(=O)CN)C(=O)N[C@@H](CSSC[C@@H](C(N)=O)NC1=O)C(=O)N[C@@H](CO)C(=O)N[C@@H](CC(=O)O)C(=O)N1CCC[C@H]1C(=O)N[C@@H](CCCNC(=N)N)C(=O)N2 (H-GCCSDPRCRYRC-NH2; disulfide 2-8, 3-12) | 249 | > 1000 | – | – | inhibition [6]: 20%
6 | CC(C)C[C@@H]1NC(=O)[C@H](CCC(=O)O)NC(=O)[C@@H]2CCCN2C(=O)[C@H](Cc2cnc[nH]2)NC(=O)[C@H](CC(N)=O)NC(=O)[C@H](C(C)C)NC(=O)[C@H](CO)NC(=O)[C@@H]2CSSC[C@H](NC(=O)CN)C(=O)N[C@@H](CSSC[C@@H](C(N)=O)NC1=O)C(=O)N[C@@H](CO)C(=O)N[C@@H](Cc1cnc[nH]1)C(=O)N1CCC[C@H]1C(=O)N[C@@H](C)C(=O)N2 (H-GCCSHPACSVNHPELC-NH2; disulfide 2-8, 3-16) | – | > 10000 | – | – | –
7 | N=C(N)NCCC[C@H](NC(=O)CNC(=O)C(CCCCNC(=O)CCCc1cn(CCOCCOCCOCCOCCOCCOCCOCCOCCOCCC(=O)NCC(=O)N[C@H]2CSSC[C@@H]3NC(=O)[C@H](CCCNC(=N)N)NC(=O)[C@@H]4CCCN4C(=O)[C@H](CC(=O)O)NC(=O)[C@H](CO)NC(=O)[C@H](CSSC[C@@H](C(N)=O)NC(=O)[C@H](CCCNC(=N)N)NC(=O)[C@H](Cc4ccc(O)cc4)NC(=O)[C@H](CCCNC(=N)N)NC3=O)NC2=O)nn1)NC(=O)CCCc1cn(CCOCCOCCOCCOCCOCCOCCOCCOCCOCCC(=O)NCC(=O)N[C@H]2CSSC[C@@H]3NC(=O)[C@H](CCCNC(=N)N)NC(=O)[C@@H]4CCCN4C(=O)[C@H](CC(=O)O)NC(=O)[C@H](CO)NC(=O)[C@H](CSSC[C@@H](C(N)=O)NC(=O)[C@H](CCCNC(=N)N)NC(=O)[C@H](Cc4ccc(O)cc4)NC(=O)[C@H](CCCNC(=N)N)NC3=O)NC2=O)nn1)C(=O)N[C@@H](CCCNC(=N)N)C(=O)N[C@@H](CCCNC(=N)N)C(=O)N[C@@H](CCCNC(=N)N)C(=O)NCC(N)=O (some centres undefined) (I: GCCSDPRCRYRC-NH2 / II: GCCSDPRCRYRC-NH2 / III: [ξK]GRRRRG-NH2; disulfide I:2-I:8, I:3-I:12, II:2-II:8, II:3-II:12; linker I:N-III:1, II:N-III:N via X1) | 38.5 | 63.1 | Dose-dependent effect | Dose-dependent effect | IC50 [7]: 117 nM; inhibition [8]: Active; inhibition [9]: inactive; inhibition [10]: inactive; inhibition [11]: 60%; inhibition [12]: inactive; inhibition [13]: inactive; inhibition [14]: Active; inhibition [15]: Active
8 | CC(C)C[C@@H]1NC(=O)[C@H](CCC(=O)O)NC(=O)[C@@H]2CCCN2C(=O)[C@H](Cc2cnc[nH]2)NC(=O)[C@H](CC(N)=O)NC(=O)[C@H](C(C)C)NC(=O)[C@H](CO)NC(=O)[C@@H]2CSSC[C@H](NC(=O)CNC(=O)CCOCCOCCOCCOCCOCCOCCOCCOCCOCCn3cc(CCCC(=O)NCCCCC(NC(=O)CCCc4cn(CCOCCOCCOCCOCCOCCOCCOCCOCCOCCC(=O)NCC(=O)N[C@H]5CSSC[C@@H]6NC(=O)[C@H](C)NC(=O)[C@@H]7CCCN7C(=O)[C@H](Cc7cnc[nH]7)NC(=O)[C@H](CO)NC(=O)[C@H](CSSC[C@@H](C(N)=O)NC(=O)[C@H](CC(C)C)NC(=O)[C@H](CCC(=O)O)NC(=O)[C@@H]7CCCN7C(=O)[C@H](Cc7cnc[nH]7)NC(=O)[C@H](CC(N)=O)NC(=O)[C@H](C(C)C)NC(=O)[C@H](CO)NC6=O)NC5=O)nn4)C(=O)NCC(=O)N[C@@H](CCCNC(=N)N)C(=O)N[C@@H](CCCNC(=N)N)C(=O)N[C@@H](CCCNC(=N)N)C(=O)N[C@@H](CCCNC(=N)N)C(=O)NCC(N)=O)nn3)C(=O)N[C@@H](CSSC[C@@H](C(N)=O)NC1=O)C(=O)N[C@@H](CO)C(=O)N[C@@H](Cc1cnc[nH]1)C(=O)N1CCC[C@H]1C(=O)N[C@@H](C)C(=O)N2 (some centres undefined) (I: GCCSHPACSVNHPELC-NH2 / II: GCCSHPACSVNHPELC-NH2 / III: [ξK]GRRRRG-NH2; disulfide I:2-I:8, I:3-I:16, II:2-II:8, II:3-II:16; linker I:N-III:1, II:N-III:N via X1) | 1.9 | 354 | Dose-dependent effect | Dose-dependent effect | –
